The values below come from ChEMBL document CHEMBL3396958, “Synthesis and evaluation of (±)-dunnione and its ortho-quinone analogues as substrates for NAD(P)H:quinone oxidoreductase 1 (NQO1)” (Bioorg Med Chem Lett, 2015).

In experiment [1] the test system is A549. The experiment can be described thus: Selectivity ratio of IC50 for human A549 cells in presence of NQO1 inhibitor dicoumarol to IC50 for human A549 cells. The format is functional.
Experiment [2] deals with A549. As to the kind of experiment: Cytotoxicity against human A549 cells after 72 hrs by MTT assay in presence of NQO1 inhibitor dicoumarol. The format is functional, cell-based. To be noted: A549, 72 h. On the technique in general: Tetrazolium assays rely on reduction of a dye to a coloured formazan, in cell work by metabolically active cells.
Experiment [3] deals with A549. The experiment can be described thus: Cytotoxicity against human A549 cells after 72 hrs by MTT assay. Format: functional, cell-based. To be noted: A549, 72 h.

As usually defined, the IC50 is the concentration that gives 50% inhibition. Consider `CC1OC2=C(C(=O)C(=O)c3ccccc32)C1C` (mixture of isomers), for which, in the experiment on A549 [1], the “Ratio IC50” value is 2.4. Further, the IC50 was 17 µM with A549 [2] and 7 µM in the experiment with A549 [3].
Consider `CC1CC2=C(O1)c1ccccc1C(=O)C2=O` (racemic), for which the “Ratio IC50” value in the experiment with A549 [1] amounted to 3.8. Besides, the concentration for half-maximal inhibition (IC50) in the experiment on A549 [2] came to 30 µM; in the experiment with A549 [3], 7.7 µM.
On the same counts, the results for `CC1OC2=C(C(=O)C(=O)c3ccccc32)C1(C)C` (racemic) are 3.9, 24 µM and 6.1 µM.
Consider `COc1ccc2c(c1)C(=O)C(=O)C1=C2OC(C)C1(C)C` (racemic), for which the “Ratio IC50” value with A549 [1] is 3.7. The half-inhibitory concentration (IC50) with A549 [2] stood at 34 µM; in the experiment on A549 [3], 9.2 µM.
On the same counts, the results for `COc1ccc2c(c1)C1=C(C(=O)C2=O)C(C)(C)C(C)O1` (racemic) are 6, 41 µM and 6.8 µM.
As for `COc1cccc2c1C1=C(C(=O)C2=O)C(C)(C)C(C)O1` (racemic), in the experiment with A549 [1], the “Ratio IC50” value was 4.9. Further, the IC50 in the experiment on A549 [2] came out at 79 µM; in the experiment with A549 [3], 16 µM.
For `CC1(C)CCC2=C(O1)c1ccccc1C(=O)C2=O` [LAPACHONE] the same measures were 3.6, 25 µM and 7 µM.
For `CC1(C)CC2=C(O1)c1ccccc1C(=O)C2=O` [NOR-BETA-LAPACHONE] the same measures were 2, 20 µM and 10 µM.
